Where “and” joins values, the source holds several entries; their conditions need not be identical. Equal entries are not always repeated. Inconclusive results and toxic doses are left out.
Test system: L1210 leukemia ip in BDF1 mice, survival T/C
Test: NCI In Vivo Anticancer Drug Screen. Data for tumor model L1210 Leukemia (intraperitoneal) in B6D2F1 (BDF1) mice
Details: endpoint: mean survival time, higher = longer survival
Outline: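 Survival endpoint. Drug-treated group vs vehicle group, expressed as T divided by C. Tumor passaged by transplantation.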

[1] = dose: 100.0 mg/kg/injection, schedule: Q01DX009 (ip), vehicle: saline with Tween-80
[2] = dose: 100.0 mg/kg/injection, schedule: Q04DX003 (ip), vehicle: saline with Tween-80
[3] = dose: 200.0 mg/kg/injection, schedule: Q01DX009 (ip), vehicle: saline with Tween-80
[4] = dose: 200.0 mg/kg/injection, schedule: Q04DX003 (ip), vehicle: saline with Tween-80
[5] = dose: 400.0 mg/kg/injection, schedule: Q01DX009 (ip), vehicle: saline with Tween-80
[6] = dose: 400.0 mg/kg/injection, schedule: Q04DX003 (ip), vehicle: saline with Tween-80
[7] = dose: 100.0 mg/kg/injection, schedule: Q01DX001 (ip), vehicle: carboxymethylcellulose (CMC)
[8] = dose: 200.0 mg/kg/injection, schedule: Q01DX001 (ip), vehicle: carboxymethylcellulose (CMC)
[9] = dose: 400.0 mg/kg/injection, schedule: Q01DX001 (ip), vehicle: carboxymethylcellulose (CMC)
[10] = dose: 50.0 mg/kg/injection, schedule: Q01DX001 (ip), vehicle: saline
[11] = dose: 100.0 mg/kg/injection, schedule: Q01DX001 (ip), vehicle: saline
[12] = dose: 200.0 mg/kg/injection, schedule: Q01DX001 (ip), vehicle: saline
[13] = dose: 400.0 mg/kg/injection, schedule: Q01DX001 (ip), vehicle: saline
[14] = dose: 25.0 mg/kg/injection, schedule: Q01DX009 (ip), vehicle: saline with Tween-80
[15] = dose: 12.5 mg/kg/injection, schedule: Q01DX009 (ip), vehicle: saline with Tween-80
[16] = dose: 12.5 mg/kg/injection, schedule: Q04DX003 (ip), vehicle: saline with Tween-80
[17] = dose: 100.0 mg/kg/injection, schedule: Q04DX003 (ip), vehicle: Klucel (hydroxypropylcellulose) (HPC)
[18] = dose: 200.0 mg/kg/injection, schedule: Q04DX003 (ip), vehicle: Klucel (hydroxypropylcellulose) (HPC)
[19] = dose: 400.0 mg/kg/injection, schedule: Q04DX003 (ip), vehicle: Klucel (hydroxypropylcellulose) (HPC)
[20] = dose: 100.0 mg/kg/injection, schedule: Q04DX002 (ip), vehicle: Klucel (hydroxypropylcellulose) (HPC)

C=C(C)c1cc2ccccc2cc1O
T/C [1]: 98 % of control
T/C [2]: 90 % of control
T/C [3]: 100 % of control
T/C [4]: 94 % of control
T/C [5]: 98 % of control
T/C [6]: 92 % of control

CCc1ccc(N=Nc2c(F)c(F)c(N)c(F)c2F)cc1
T/C [7]: 100 % of control
T/C [8]: 95 % of control
T/C [9]: 102 % of control

O=C(O)O.[Co].[NH-]CCN(CC[NH-])CC[NH-]
T/C [10]: 105 % of control
T/C [11]: 94 % of control
T/C [12]: 111 % of control
T/C [13]: 100 % of control

Clc1ccc(C(c2ccc(Cl)cc2)N2CCNCC2)cc1
T/C [14]: 98 % of control

CCCCCCCCC1OCC(C)O1 (stereo not given)
T/C (dose: 24.0 mg/kg/injection, schedule: Q01DX Z (ip), vehicle: methylcellulose (MC)): 94 % of control and 92 % of control
T/C (dose: 37.0 mg/kg/injection, schedule: Q01DX Z (ip), vehicle: methylcellulose (MC)): 96 % of control and 107 % of control
T/C (dose: 55.0 mg/kg/injection, schedule: Q01DX Z (ip), vehicle: methylcellulose (MC)): 86 % of control
T/C (dose: 82.5 mg/kg/injection, schedule: Q01DX Z (ip), vehicle: methylcellulose (MC)): 97 % of control and 92 % of control
T/C (dose: 124.0 mg/kg/injection, schedule: Q01DX Z (ip), vehicle: methylcellulose (MC)): 94 % of control

CCCNC(=O)Nc1cccc(Cl)c1C
T/C [1]: 102 % of control
T/C [2]: 101 % of control
T/C [3]: 94 % of control
T/C [4]: 94 % of control
T/C [5]: 100 % of control
T/C [6]: 100 % of control

CS(=O)(=O)c1ccc2c(c1)-c1ccccc1C2=O
T/C [7]: 96 % of control
T/C [8]: 104 % of control
T/C [9]: 98 % of control

CCCCNc1nnc(N)s1
T/C (dose: 100.0 mg/kg/injection, schedule: Q04DX002 (ip), vehicle: saline with Tween-80): 98 % of control
T/C (dose: 200.0 mg/kg/injection, schedule: Q04DX002 (ip), vehicle: saline with Tween-80): 98 % of control

CCN(CC)CCNc1ccc(CO)c(Cl)c1
T/C (dose: 31.25 mg/kg/injection, schedule: Q01DX009 (ip), vehicle: Klucel (hydroxypropylcellulose) (HPC)): 92 % of control
T/C (dose: 62.5 mg/kg/injection, schedule: Q01DX009 (ip), vehicle: Klucel (hydroxypropylcellulose) (HPC)): 89 % of control
T/C (dose: 125.0 mg/kg/injection, schedule: Q01DX009 (ip), vehicle: Klucel (hydroxypropylcellulose) (HPC)): 106 % of control

O=S(=O)(/C=C/c1ccc(Cl)cc1)c1ccccc1
T/C [11]: 102 % of control
T/C (dose: 100.0 mg/kg/injection, schedule: Q01DX009 (ip), vehicle: saline): 91 % of control
T/C [12]: 104 % of control
T/C (dose: 200.0 mg/kg/injection, schedule: Q01DX009 (ip), vehicle: saline): 96 % of control
T/C [13]: 102 % of control
T/C (dose: 400.0 mg/kg/injection, schedule: Q01DX009 (ip), vehicle: saline): 94 % of control

Cc1nc2ncn(C3OC(CO)C(O)C3O)c2nc1C (stereo not given)
T/C (dose: 100.0 mg/kg/injection, schedule: Q01DX005 (ip), vehicle: saline): 95 % of control
T/C (dose: 200.0 mg/kg/injection, schedule: Q01DX005 (ip), vehicle: saline): 90 % of control

CCOC(O)(C(F)(F)F)C(F)(F)F
T/C [15]: 96 % of control
T/C [16]: 95 % of control
T/C [14]: 105 % of control
T/C (dose: 50.0 mg/kg/injection, schedule: Q04DX003 (ip), vehicle: saline with Tween-80): 97 % of control
T/C [11]: 98 % of control

CC(=O)Nc1ccc(/C=N/NC(=O)CNC(=O)NCc2ccccc2)cc1
T/C (dose: 50.0 mg/kg/injection, schedule: Q01DX009 (ip), vehicle: saline with Tween-80): 95 % of control
T/C [1]: 89 % of control
T/C [3]: 89 % of control

Nc1ccc2c(c1)sc1ccccc12
T/C [2]: 88 % of control
T/C [4]: 91 % of control

O=S(=O)(Nc1ccc2ccccc2c1)c1ccc2ccccc2c1
T/C [17]: 91 % of control
T/C [18]: 90 % of control
T/C [19]: 91 % of control

c1ccc([Si](c2ccccc2)(c2ccccc2)[Si](c2ccccc2)(c2ccccc2)c2ccccc2)cc1
T/C (dose: 12.5 mg/kg/injection, schedule: Q01DX009 (ip), vehicle: saline): 100 % of control
T/C (dose: 25.0 mg/kg/injection, schedule: Q01DX009 (ip), vehicle: saline): 93 % of control
T/C (dose: 50.0 mg/kg/injection, schedule: Q01DX009 (ip), vehicle: saline): 93 % of control
T/C [20]: 98 % of control
T/C (dose: 200.0 mg/kg/injection, schedule: Q04DX002 (ip), vehicle: Klucel (hydroxypropylcellulose) (HPC)): 98 % of control
T/C (dose: 400.0 mg/kg/injection, schedule: Q04DX002 (ip), vehicle: Klucel (hydroxypropylcellulose) (HPC)): 87 % of control

O=C(O)c1ccc(CBr)cc1CBr
T/C (dose: 6.25 mg/kg/injection, schedule: Q01DX009 (ip), vehicle: saline with Tween-80): 103 % of control
T/C (dose: 6.25 mg/kg/injection, schedule: Q04DX003 (ip), vehicle: saline with Tween-80): 93 % of control
T/C [15]: 101 % of control
T/C [16]: 96 % of control
T/C [14]: 94 % of control
T/C (dose: 25.0 mg/kg/injection, schedule: Q04DX003 (ip), vehicle: saline with Tween-80): 102 % of control

Cc1cc(C)c(O)c(N=O)c1.[Cu+2]
T/C [10]: 101 % of control
T/C [11]: 97 % of control
T/C [12]: 101 % of control
T/C [13]: 97 % of control

Cc1ccc(S(=O)(=O)N/N=C/C(=O)O)cc1
T/C (dose: 10.0 mg/kg/injection, schedule: Q01DX009 (ip), vehicle: other): 116 % of control
T/C (dose: 15.0 mg/kg/injection, schedule: Q01DX009 (ip), vehicle: other): 118 % of control
T/C (dose: 27.0 mg/kg/injection, schedule: Q01DX009 (ip), vehicle: saline): 158 % of control
T/C (dose: 33.0 mg/kg/injection, schedule: Q01DX009 (ip), vehicle: other): 166 % of control
T/C (dose: 40.0 mg/kg/injection, schedule: Q01DX009 (ip), vehicle: saline): 153 % of control
T/C (dose: 50.0 mg/kg/injection, schedule: Q01DX009 (ip), vehicle: water): 108 % of control
T/C (dose: 75.0 mg/kg/injection, schedule: Q01DX001 (ip), vehicle: saline): 119 % of control
T/C (dose: 90.0 mg/kg/injection, schedule: Q01DX009 (ip), vehicle: saline): 164 % of control
T/C [1]: 120 % of control
T/C (dose: 100.0 mg/kg/injection, schedule: Q01DX009 (ip), vehicle: water): 92 % of control
T/C (dose: 112.0 mg/kg/injection, schedule: Q01DX009 (ip), vehicle: other): 97 % of control
T/C (dose: 144.0 mg/kg/injection, schedule: Q04DX003 (ip), vehicle: saline with Tween-80): 97 % of control
T/C (dose: 150.0 mg/kg/injection, schedule: Q01DX009 (ip), vehicle: saline with Tween-80): 116 % of control
T/C [3]: 112 % of control
T/C (dose: 240.0 mg/kg/injection, schedule: Q04DX003 (ip), vehicle: saline with Tween-80): 107 % of control
T/C [6]: 108 % of control
T/C (dose: 500.0 mg/kg/injection, schedule: Q01DX009 (ip), vehicle: saline with Tween-80): 117 % of control

O=C1c2ccccc2C(=O)N1CNc1ccccc1/C(=N/O)c1ccccc1
T/C (dose: 87.5 mg/kg/injection, schedule: Q01DX009 (ip), vehicle: Klucel (hydroxypropylcellulose) (HPC)): 95 % of control
T/C (dose: 175.0 mg/kg/injection, schedule: Q01DX009 (ip), vehicle: Klucel (hydroxypropylcellulose) (HPC)): 93 % of control
T/C (dose: 350.0 mg/kg/injection, schedule: Q01DX009 (ip), vehicle: Klucel (hydroxypropylcellulose) (HPC)): 93 % of control

OC12c3ccccc3C(O)(c3ccccc31)C1c3ccccc3C2c2ccccc21
T/C (dose: 50.0 mg/kg/injection, schedule: Q04DX002 (ip), vehicle: Klucel (hydroxypropylcellulose) (HPC)): 101 % of control
T/C [20]: 93 % of control

O/N=C1/CCCC/C1=C/c1ccccc1
T/C [2]: 101 % of control
T/C [4]: 97 % of control
T/C [6]: 100 % of control

Oc1ccc2ccccc2c1/C=N/N=C/c1c(O)ccc2ccccc12
T/C [17]: 96 % of control
T/C [18]: 91 % of control
T/C (dose: 300.0 mg/kg/injection, schedule: Q01DX009 (ip), vehicle: Klucel (hydroxypropylcellulose) (HPC)): 98 % of control
T/C [19]: 88 % of control

COC(=O)NC1CC/C=C\CCC1I (stereo not given)
T/C (dose: 200.0 mg/kg/injection, schedule: Q04DX002 (ip), vehicle: DMSO): 102 % of control

— PubChem BioAssay AID248 (DTP/NCI, 2004)
